# Source: the supplement of paper PMC6045584
# ± gives the standard deviation of the averaged measurements.
# Experiments:
# YM155 = compound: COCC[n+]1c2c(n(Cc3cnccn3)c1C)C(=O)c1ccccc1C2=O [YM155]; assay: surviving fraction relative to DMSO-only wells; higher = less growth inhibition; conditions: exposure time: 5 days
# Summary of the method: (§1)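 Surviving fraction is CellTiter-Glo luminescence divided by the median of wells given DMSO only. For this, log-phase tumour cell lines went into 384-well plates at 250–500 cells per well and, 24 hours later, into five days of continuous inhibitor exposure at 0.5, 1, 5, 10, 50, 100, 500 and 1000 nM. Lines were screened three times and retained only if replicate Pearson r >0.7 and median Z' >0.3.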
# OSI-906 = compound: C[C@]1(O)C[C@@H](c2nc(-c3ccc4ccc(-c5ccccc5)nc4c3)c3c(N)nccn32)C1 [OSI-906]; assay: as above; conditions: exposure time: 5 days
# Summary of the method: as §1
test system,measurement,setting,value
CAL120 BREAST,surviving fraction,YM155; 0.5 nM,0.934 ± 0.049
same,surviving fraction,YM155; 1 nM,0.905 ± 0.073
same,surviving fraction,YM155; 5 nM,0.148 ± 0.021
same,surviving fraction,YM155; 10 nM,0.0712 ± 0.0018
same,surviving fraction,YM155; 50 nM,0.0243 ± 0.001
same,surviving fraction,YM155; 100 nM,0.0215 ± 0.00087
same,surviving fraction,YM155; 500 nM,0.016 ± 0.00087
same,surviving fraction,YM155; 1000 nM,0.023 ± 0.0017
same,surviving fraction,OSI-906; 0.5 nM,0.895 ± 0.052
same,surviving fraction,OSI-906; 1 nM,0.907 ± 0.054
same,surviving fraction,OSI-906; 5 nM,0.937 ± 0.041
same,surviving fraction,OSI-906; 10 nM,0.942 ± 0.026
same,surviving fraction,OSI-906; 50 nM,0.901 ± 0.04
same,surviving fraction,OSI-906; 100 nM,0.9 ± 0.066
same,surviving fraction,OSI-906; 500 nM,0.895 ± 0.046
same,surviving fraction,OSI-906; 1000 nM,0.893 ± 0.058
CASKI CERVIX,surviving fraction,YM155; 0.5 nM,0.914 ± 0.052
same,surviving fraction,YM155; 1 nM,0.93 ± 0.07
same,surviving fraction,YM155; 5 nM,0.796 ± 0.056
same,surviving fraction,YM155; 10 nM,0.538 ± 0.046
same,surviving fraction,YM155; 50 nM,0.063 ± 0.009
same,surviving fraction,YM155; 100 nM,0.0337 ± 0.0011
same,surviving fraction,YM155; 500 nM,0.0223 ± 0.0015
same,surviving fraction,YM155; 1000 nM,0.0267 ± 0.0015
same,surviving fraction,OSI-906; 0.5 nM,0.826 ± 0.028
same,surviving fraction,OSI-906; 1 nM,0.849 ± 0.029
same,surviving fraction,OSI-906; 5 nM,0.814 ± 0.049
same,surviving fraction,OSI-906; 10 nM,0.798 ± 0.038
same,surviving fraction,OSI-906; 50 nM,0.976 ± 0.067
same,surviving fraction,OSI-906; 100 nM,0.965 ± 0.064
same,surviving fraction,OSI-906; 500 nM,0.982 ± 0.068
same,surviving fraction,OSI-906; 1000 nM,0.982 ± 0.051
CCK81 LARGE INTESTINE,surviving fraction,YM155; 0.5 nM,0.854 ± 0.1
same,surviving fraction,YM155; 1 nM,0.82 ± 0.03
same,surviving fraction,YM155; 5 nM,0.735 ± 0.076
same,surviving fraction,YM155; 10 nM,0.745 ± 0.021
same,surviving fraction,YM155; 50 nM,0.674 ± 0.022
same,surviving fraction,YM155; 100 nM,0.798 ± 0.073
same,surviving fraction,YM155; 500 nM,0.719 ± 0.036
same,surviving fraction,YM155; 1000 nM,0.801 ± 0.13
same,surviving fraction,OSI-906; 0.5 nM,0.782 ± 0.2
same,surviving fraction,OSI-906; 1 nM,0.815 ± 0.089
same,surviving fraction,OSI-906; 5 nM,0.87 ± 0.051
same,surviving fraction,OSI-906; 10 nM,0.784 ± 0.036
same,surviving fraction,OSI-906; 50 nM,0.726 ± 0.17
same,surviving fraction,OSI-906; 100 nM,0.668 ± 0.13
same,surviving fraction,OSI-906; 500 nM,0.414 ± 0.13
same,surviving fraction,OSI-906; 1000 nM,0.327 ± 0.058
CHLA90 AUTONOMIC GANGLIA,surviving fraction,YM155; 0.5 nM,0.807 ± 0.017
same,surviving fraction,YM155; 1 nM,0.926 ± 0.075
same,surviving fraction,YM155; 5 nM,0.734 ± 0.057
same,surviving fraction,YM155; 10 nM,0.44 ± 0.057
same,surviving fraction,YM155; 50 nM,0.106 ± 0.028
same,surviving fraction,YM155; 100 nM,0.0633 ± 0.013
same,surviving fraction,YM155; 500 nM,0.025 ± 0.0027
same,surviving fraction,YM155; 1000 nM,0.0273 ± 0.0015
same,surviving fraction,OSI-906; 0.5 nM,0.883 ± 0.046
same,surviving fraction,OSI-906; 1 nM,0.904 ± 0.019
same,surviving fraction,OSI-906; 5 nM,0.862 ± 0.036
same,surviving fraction,OSI-906; 10 nM,0.828 ± 0.08
same,surviving fraction,OSI-906; 50 nM,0.832 ± 0.059
same,surviving fraction,OSI-906; 100 nM,0.792 ± 0.084
same,surviving fraction,OSI-906; 500 nM,0.78 ± 0.056
same,surviving fraction,OSI-906; 1000 nM,0.725 ± 0.082
CME SYNOVIAL,surviving fraction,YM155; 0.5 nM,0.752 ± 0.12
same,surviving fraction,YM155; 1 nM,0.95 ± 0.22
same,surviving fraction,YM155; 5 nM,0.468 ± 0.037
same,surviving fraction,YM155; 10 nM,0.254 ± 0.049
same,surviving fraction,YM155; 50 nM,0.232 ± 0.023
same,surviving fraction,YM155; 100 nM,0.206 ± 0.0035
same,surviving fraction,YM155; 500 nM,0.189 ± 0.0055
same,surviving fraction,YM155; 1000 nM,0.27 ± 0.029
same,surviving fraction,OSI-906; 0.5 nM,0.905 ± 0.26
same,surviving fraction,OSI-906; 1 nM,0.854 ± 0.13
same,surviving fraction,OSI-906; 5 nM,0.934 ± 0.15
same,surviving fraction,OSI-906; 10 nM,0.973 ± 0.075
same,surviving fraction,OSI-906; 50 nM,1.08 ± 0.058
same,surviving fraction,OSI-906; 100 nM,1.14 ± 0.21
same,surviving fraction,OSI-906; 500 nM,0.984 ± 0.095
same,surviving fraction,OSI-906; 1000 nM,0.823 ± 0.13
DU4475 BREAST,surviving fraction,YM155; 0.5 nM,0.934 ± 0.11
same,surviving fraction,YM155; 1 nM,0.805 ± 0.044
same,surviving fraction,YM155; 5 nM,0.839 ± 0.08
same,surviving fraction,YM155; 10 nM,0.903 ± 0.21
same,surviving fraction,YM155; 50 nM,0.108 ± 0.025
same,surviving fraction,YM155; 100 nM,0.0437 ± 0.008
same,surviving fraction,YM155; 500 nM,0.0273 ± 0.0015
same,surviving fraction,YM155; 1000 nM,0.0337 ± 0.0038
same,surviving fraction,OSI-906; 0.5 nM,0.863 ± 0.18
same,surviving fraction,OSI-906; 1 nM,0.825 ± 0.18
same,surviving fraction,OSI-906; 5 nM,0.726 ± 0.089
same,surviving fraction,OSI-906; 10 nM,0.786 ± 0.12
same,surviving fraction,OSI-906; 50 nM,0.785 ± 0.18
same,surviving fraction,OSI-906; 100 nM,0.553 ± 0.043
same,surviving fraction,OSI-906; 500 nM,0.41 ± 0.024
same,surviving fraction,OSI-906; 1000 nM,0.36 ± 0.08
G292 BONE,surviving fraction,YM155; 0.5 nM,0.967 ± 0.04
same,surviving fraction,YM155; 1 nM,1 ± 0.047
same,surviving fraction,YM155; 5 nM,0.654 ± 0.024
same,surviving fraction,YM155; 10 nM,0.528 ± 0.037
same,surviving fraction,YM155; 50 nM,0.251 ± 0.0065
same,surviving fraction,YM155; 100 nM,0.194 ± 0.007
same,surviving fraction,YM155; 500 nM,0.0688 ± 0.0042
same,surviving fraction,YM155; 1000 nM,0.0473 ± 0.0024
same,surviving fraction,OSI-906; 0.5 nM,0.923 ± 0.032
same,surviving fraction,OSI-906; 1 nM,0.929 ± 0.035
same,surviving fraction,OSI-906; 5 nM,0.929 ± 0.04
same,surviving fraction,OSI-906; 10 nM,0.919 ± 0.034
same,surviving fraction,OSI-906; 50 nM,0.728 ± 0.059
same,surviving fraction,OSI-906; 100 nM,0.624 ± 0.021
same,surviving fraction,OSI-906; 500 nM,0.579 ± 0.04
same,surviving fraction,OSI-906; 1000 nM,0.553 ± 0.045
H23 LUNG,surviving fraction,YM155; 0.5 nM,0.78 ± 0.053
same,surviving fraction,YM155; 1 nM,0.822 ± 0.056
same,surviving fraction,YM155; 5 nM,0.125 ± 0.014
same,surviving fraction,YM155; 10 nM,0.113 ± 0.003
same,surviving fraction,YM155; 50 nM,0.0233 ± 0.0021
same,surviving fraction,YM155; 100 nM,0.02 ± 0.0017
same,surviving fraction,YM155; 500 nM,0.0163 ± 0.0011
same,surviving fraction,YM155; 1000 nM,0.0227 ± 0.0015
same,surviving fraction,OSI-906; 0.5 nM,0.902 ± 0.047
same,surviving fraction,OSI-906; 1 nM,0.897 ± 0.044
same,surviving fraction,OSI-906; 5 nM,0.931 ± 0.05
same,surviving fraction,OSI-906; 10 nM,0.904 ± 0.03
same,surviving fraction,OSI-906; 50 nM,0.879 ± 0.031
same,surviving fraction,OSI-906; 100 nM,0.848 ± 0.061
same,surviving fraction,OSI-906; 500 nM,0.662 ± 0.016
same,surviving fraction,OSI-906; 1000 nM,0.607 ± 0.03
HCC38 BREAST,surviving fraction,YM155; 0.5 nM,1.28 ± 0.18
same,surviving fraction,YM155; 1 nM,1.27 ± 0.12
same,surviving fraction,YM155; 5 nM,0.346 ± 0.013
same,surviving fraction,YM155; 10 nM,0.243 ± 0.015
same,surviving fraction,YM155; 50 nM,0.043 ± 0.0056
same,surviving fraction,YM155; 100 nM,0.031 ± 0.002
same,surviving fraction,YM155; 500 nM,0.0247 ± 0.0021
same,surviving fraction,YM155; 1000 nM,0.0297 ± 0.0011
same,surviving fraction,OSI-906; 0.5 nM,0.958 ± 0.13
same,surviving fraction,OSI-906; 1 nM,0.883 ± 0.083
same,surviving fraction,OSI-906; 5 nM,1.06 ± 0.09
same,surviving fraction,OSI-906; 10 nM,0.902 ± 0.12
same,surviving fraction,OSI-906; 50 nM,1.1 ± 0.19
same,surviving fraction,OSI-906; 100 nM,1.12 ± 0.019
same,surviving fraction,OSI-906; 500 nM,1.16 ± 0.14
same,surviving fraction,OSI-906; 1000 nM,1.07 ± 0.24
HCC70 BREAST,surviving fraction,YM155; 0.5 nM,1.09 ± 0.1
same,surviving fraction,YM155; 1 nM,1.04 ± 0.11
same,surviving fraction,YM155; 5 nM,1.01 ± 0.11
same,surviving fraction,YM155; 10 nM,0.934 ± 0.069
same,surviving fraction,YM155; 50 nM,0.632 ± 0.049
same,surviving fraction,YM155; 100 nM,0.515 ± 0.044
same,surviving fraction,YM155; 500 nM,0.135 ± 0.023
same,surviving fraction,YM155; 1000 nM,0.068 ± 0.007
same,surviving fraction,OSI-906; 0.5 nM,0.861 ± 0.13
same,surviving fraction,OSI-906; 1 nM,1.02 ± 0.099
same,surviving fraction,OSI-906; 5 nM,1.04 ± 0.081
same,surviving fraction,OSI-906; 10 nM,1.02 ± 0.055
same,surviving fraction,OSI-906; 50 nM,1.04 ± 0.018
same,surviving fraction,OSI-906; 100 nM,1.08 ± 0.017
same,surviving fraction,OSI-906; 500 nM,1 ± 0.053
same,surviving fraction,OSI-906; 1000 nM,0.924 ± 0.11
